This note sets out measurements from US6414005B1, “Heterocyclic compounds having nos inhibitory activities” (Chugai Seiyaku Kabushiki Kaisha, priority 1997, dated 2002).

In one test the target is T1, nNOS (type 1) (Rattus norvegicus, UniProt P29476).
T1 construct: from tissue; host or cells: rat cerebral cortex, 100,000 x g supernatant (cytosol)
Briefly: NOS activity, conversion of L-[3H]arginine to L-[3H]citrulline, crude enzyme of nNOS. Type of test: biochemical. The settings on record: for Ratio of IC50 eNOS/nNOS / Ratio of IC50 iNOS/nNOS: index of selectivity. As for the experimental part: The crude enzyme of nNOS was prepared by the following procedure. Normal untreated male Sprague Dawley (SD) rats (body weight, 300-400 g) were decapitated; the whole brain was immediately taken out from each animal and the cerebral cortex was separated on ice. Then, 5 volumes of 50 mM Tris-HCl containing 1 mM DTT (pH 7.4) was added and the mixture was homogenized for 3 min and centrifuged at 1,000×g for 10 min. The resulting supernatant was further centrifuged at 100,000×g for 60 min and a soluble cytosolic fraction of the finally obtained supernatant was used as the crude enzyme of nNOS.
(§1) The reaction was started by addition of L-[^3H] arginine. After incubation at 37° C. for 10 min, the reaction was terminated by addition of 2 ml of 50 mM Tris-HCl (pH 5.5) containing 1 mM EDTA and placing the mixture on ice. The reaction solution was passed through a cation-exchange resin column (Dowex AG50WX-8, Na^+ form, 3.2 ml) to separate the reaction product L-[^3H] citrulline from the unreacted residual substrate L-[^3H] arginine. The eluate was combined with another eluate resulting from the passage of a given amount of distilled water through the column and put into a minivial for recovery of L-[^3H] citrulline. Thereafter, a scintillation fluid was added and the contained radioactivity was measured with a liquid scintillation counter to determine the amount of L-[^3H] citrulline.
The activity of nNOS or eNOS was determined by subtracting the activity detected in the absence of CaCl2 and calmodulin from the activity detected in the presence of CaCl2 and calmodulin. The protein concentration of each crude enzyme sample was determined with a micro-assay kit of Bio Rad Co. Each experiment was conducted in a duplicate.

For another test, the target named is T2, eNOS (type 3) (Bos taurus, UniProt P29473).
T2 construct: Cow pulmonary arterial endothelium cells (CPAE) were cultured in a MEM medium containing 20% FBS; endogenous in cells; host or cells: CPAE (cow pulmonary arterial endothelium cells), detergent extract, 100,000 x g supernatant
T2 sequence (P29473 2-1205): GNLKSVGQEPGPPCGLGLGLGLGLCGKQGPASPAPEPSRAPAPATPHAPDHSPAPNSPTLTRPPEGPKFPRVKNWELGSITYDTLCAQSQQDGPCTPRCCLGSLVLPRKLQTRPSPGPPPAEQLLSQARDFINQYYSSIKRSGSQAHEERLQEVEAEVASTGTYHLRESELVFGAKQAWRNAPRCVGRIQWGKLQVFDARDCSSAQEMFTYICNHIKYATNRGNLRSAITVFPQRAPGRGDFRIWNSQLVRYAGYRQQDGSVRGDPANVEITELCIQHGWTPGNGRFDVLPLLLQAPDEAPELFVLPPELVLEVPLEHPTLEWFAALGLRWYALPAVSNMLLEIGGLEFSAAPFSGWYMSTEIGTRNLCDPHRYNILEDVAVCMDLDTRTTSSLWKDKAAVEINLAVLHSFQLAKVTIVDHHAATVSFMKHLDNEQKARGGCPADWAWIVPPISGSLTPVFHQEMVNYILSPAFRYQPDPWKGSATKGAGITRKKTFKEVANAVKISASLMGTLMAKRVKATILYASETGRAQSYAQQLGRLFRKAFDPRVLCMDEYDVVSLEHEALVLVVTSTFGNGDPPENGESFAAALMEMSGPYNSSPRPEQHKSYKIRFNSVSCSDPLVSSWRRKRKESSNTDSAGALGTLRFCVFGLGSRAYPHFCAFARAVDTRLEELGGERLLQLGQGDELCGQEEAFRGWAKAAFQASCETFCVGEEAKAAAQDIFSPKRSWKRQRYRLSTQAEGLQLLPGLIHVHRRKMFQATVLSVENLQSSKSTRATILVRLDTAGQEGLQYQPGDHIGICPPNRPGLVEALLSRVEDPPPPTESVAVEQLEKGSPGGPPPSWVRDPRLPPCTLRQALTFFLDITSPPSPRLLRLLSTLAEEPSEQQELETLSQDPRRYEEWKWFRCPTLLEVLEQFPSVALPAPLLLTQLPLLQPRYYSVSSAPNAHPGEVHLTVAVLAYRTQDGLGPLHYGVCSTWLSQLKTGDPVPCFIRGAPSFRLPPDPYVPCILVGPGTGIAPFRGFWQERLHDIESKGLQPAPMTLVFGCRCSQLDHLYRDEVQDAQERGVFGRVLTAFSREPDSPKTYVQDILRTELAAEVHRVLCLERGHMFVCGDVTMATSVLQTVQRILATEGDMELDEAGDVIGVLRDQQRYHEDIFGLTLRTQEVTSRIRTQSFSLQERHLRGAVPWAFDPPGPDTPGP
Briefly: NOS activity, conversion of L-[3H]arginine to L-[3H]citrulline, crude enzyme of eNOS. Type of test: biochemical, cow. Particulars: for IC50: crude enzyme from cow pulmonary arterial endothelium cells (CPAE), 100 nM L-[3H]arginine, 37° C., 10 min; for Ratio of IC50 eNOS/inos: index of selectivity.

A further test deals with iNOS (type 2) (Rattus norvegicus, UniProt Q06518). Briefly: NOS activity, conversion of L-[3H]arginine to L-[3H]citrulline, iNOS. Format: biochemical. The settings on record: 100 nM L-[3H]arginine, 37° C., 10 min. The method, then:
Crude enzymes of the respective NOS isoforms were prepared by the following procedures (Nagafuji et al., Neuroreport 6, 1541-1545, 1995).
The method of measuring NOS activity was basically the same as already reported by the present inventors and consisted of determining quantitatively the conversion of a substrate L-[^3H]arginine to a reaction product L-[^3H] citrulline (Nagafuji et al., in Brain Edema IX (Ito et al, eds.) 60, pp. 285-288, 1994; Nagafuji et al., Neuroreport 6, 1541-1545, 1995)
The reaction solution consisted of 100 nM L-[^3H] arginine, a prepared crude NOS enzyme sample (10-30 μg/ml protein), 1.25 mM CaCl2, 1 mM EDTA, 10 μg/ml calmodulin, 1 mM NADPH, 100 μM tetrahydrobiopterine, 10 μM FAD, 10 μM FMN and 50 mM Tris-HCl (pH 7.4), to which one of the compounds of the invention or one of the control compounds was added.
as §1

The mark [1] stands for this setting: crude enzyme from rat cerebral cortex, soluble cytosolic fraction, 100 nM L-[3H]arginine, 37° C., 10 min, read-out: IC50 (nM) nNOS (type 1).

Structures can show the parent of a compound that is named as a salt. Where two headings read alike, the source gives them in different places.

Chain of iNOS (type 2) (Q06518 whole entry, canonical isoform): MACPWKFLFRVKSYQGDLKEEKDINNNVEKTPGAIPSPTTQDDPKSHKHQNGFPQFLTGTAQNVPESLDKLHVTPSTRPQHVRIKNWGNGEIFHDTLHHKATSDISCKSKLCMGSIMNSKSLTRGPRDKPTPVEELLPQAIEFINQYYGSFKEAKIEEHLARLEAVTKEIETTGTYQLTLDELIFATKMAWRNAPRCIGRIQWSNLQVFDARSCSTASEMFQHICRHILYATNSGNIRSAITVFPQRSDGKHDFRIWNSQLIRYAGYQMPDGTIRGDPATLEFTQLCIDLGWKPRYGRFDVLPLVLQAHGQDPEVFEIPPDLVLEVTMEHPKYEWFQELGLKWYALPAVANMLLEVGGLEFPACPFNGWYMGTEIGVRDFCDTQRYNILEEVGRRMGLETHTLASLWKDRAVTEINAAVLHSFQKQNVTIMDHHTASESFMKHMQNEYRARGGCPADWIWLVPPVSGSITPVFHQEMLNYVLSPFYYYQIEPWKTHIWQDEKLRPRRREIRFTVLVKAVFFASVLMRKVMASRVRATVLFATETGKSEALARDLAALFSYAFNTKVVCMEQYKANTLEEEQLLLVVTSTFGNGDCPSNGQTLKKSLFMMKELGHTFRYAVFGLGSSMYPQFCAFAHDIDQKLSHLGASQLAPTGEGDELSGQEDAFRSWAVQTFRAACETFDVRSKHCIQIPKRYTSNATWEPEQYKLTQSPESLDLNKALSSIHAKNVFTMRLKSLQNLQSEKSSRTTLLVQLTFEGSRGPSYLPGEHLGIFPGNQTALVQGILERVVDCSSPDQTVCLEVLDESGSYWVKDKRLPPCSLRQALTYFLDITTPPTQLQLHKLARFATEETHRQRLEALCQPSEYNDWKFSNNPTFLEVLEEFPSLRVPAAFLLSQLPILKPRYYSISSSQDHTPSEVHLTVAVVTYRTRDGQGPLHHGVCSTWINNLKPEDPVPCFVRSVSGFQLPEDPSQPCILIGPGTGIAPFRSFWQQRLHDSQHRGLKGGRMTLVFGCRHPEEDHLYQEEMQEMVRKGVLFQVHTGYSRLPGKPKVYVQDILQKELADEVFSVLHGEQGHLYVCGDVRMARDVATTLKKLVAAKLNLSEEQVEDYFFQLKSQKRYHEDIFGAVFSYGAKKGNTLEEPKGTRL
Procedure for eNOS (type 3): The crude enzyme of eNOS was prepared by the following procedure. Cow pulmonary arterial endothelium cells (CPAE) were cultured in a MEM medium containing 20% FBS. Several days later, the cells were detached from the flask using a 0.25% trypsin solution containing 1 mM EDTA and, after addition of a suitable amount of FBS, centrifuged at 1,000 rpm for 10 min. A suitable amount of Ca- and Mg-free phosphate buffer (pH 7.4) was added to the precipitating cells and they were centrifuged at 1,000 rpm for 10 min. The same step was repeated to wash the cells which, upon addition of 50 mM Tris-HCl (pH 7.4) containing 1% Triton X-100 and 1 mM DTT, were left to stand in ice for 1 h. Subsequently, the mixture was homogenized for 3 min and kept in ice for 30 min with occasional stirring. Finally, the mixture was centrifuged at 100,000×g for 60 min and the resulting supernatant was used as the crude enzyme of eNOS.

Turning to `CCSC(=N)Nc1ccc(-n2cccn2)c(CN)c1` [Example 2, N-(3-aminomethyl-4-(pyrazol-1-yl)phenyl)-S-ethylisothiourea dihydrochloride], at nNOS (type 1) (comparison drawn from Table 2), the “selectivity for nNOS inhibition over eNOS compared with L-EIN” value (“selectivity for nNOS inhibition” for short) is given as “higher selectivity for nNOS inhibition over eNOS than L-EIN”. Also, the IC50 on nNOS (type 1) (setting [1]) worked out at 6.3 nM. Besides, on nNOS (type 1), the “Ratio of IC50 eNOS/nNOS” value was 816 and the “Ratio of IC50 iNOS/nNOS” value was 3260. Also, on eNOS (type 3), half-maximal inhibition (IC50) required 5130 nM and the “Ratio of IC50 eNOS/inos” value came to 0.250. The IC50 against iNOS (type 2) is 20500 nM.

Turning to `CCSC(=N)NCCC[C@H](N)C(=O)O` [L-EIN, S-ethyl-L-thiocitrulline], the IC50 amounted to 8.4 nM against nNOS (type 1), 732 nM against eNOS (type 3) and 6760 nM against iNOS (type 2).

For `N=C(NCCC[C@H](N)C(=O)O)NC1CC1` [L-CPA, N^G-cyclopropyl-L-arginine], the IC50 against eNOS (type 3) is 1540 nM; on iNOS (type 2), 7150 nM.

Regarding `CCSC(=N)Nc1ccc(-n2cccc2)c(CN)c1` [Example 1, N-(3-aminomethyl-4-(pyrrol-1-yl)phenyl)-S-ethylisothiourea dihydrochloride], at nNOS (type 1) (comparison drawn from Table 2), the “nNOS inhibiting activity compared with L-MIN” value is reported as “more potent nNOS inhibiting activity than L-MIN” and the “selectivity for nNOS inhibition” value is “higher selectivity for nNOS inhibition over eNOS than L-EIN”. Besides, the IC50 at nNOS (type 1) (setting [1]) worked out at 3.7 nM. Also, at nNOS (type 1), the “Ratio of IC50 eNOS/nNOS” value is recorded as 515 and the “Ratio of IC50 iNOS/nNOS” value is 2120. At eNOS (type 3), the IC50 amounted to 1920 nM and the “Ratio of IC50 eNOS/inos” value is 0.243. Moreover, the IC50 against iNOS (type 2) is 7930 nM.

`CCSC(=N)Nc1ccc(-n2cccn2)c(CN)c1C` [Example 7, N-(3-aminomethyl-2-methyl-4-(pyrazol-1-yl)phenyl)-S-ethylisothiourea dihydrochloride]: the “selectivity for nNOS inhibition” value on nNOS (type 1) (comparison drawn from Table 2) is given as “higher selectivity for nNOS inhibition over eNOS than L-EIN”. Also, the IC50 at nNOS (type 1) (setting [1]) is 22.4 nM; at eNOS (type 3), 21100 nM. Also, the “Ratio of IC50 eNOS/nNOS” value on nNOS (type 1) was determined as 943.

Turning to `CSC(=N)NCCC[C@H](N)C(=O)O` [L-MIN, S-methyl-L-thiocitrulline, reference compound], at nNOS (type 1), the IC50 stood at 5.7 nM, the “Ratio of IC50 eNOS/nNOS” value was 6.28 and the “Ratio of IC50 iNOS/nNOS” value was found to be 43.3. Further, at eNOS (type 3), it took 35.8 nM to reach half-maximal inhibition (IC50) and the “Ratio of IC50 eNOS/inos” value is given as 0.145. The compound also displayed an IC50 at iNOS (type 2) of 248 nM.

Compound `N=C(NCCC[C@H](N)C(=O)O)N[N+](=O)[O-]` [L-NA, N^G-nitro-L-arginine] displayed an IC50 at iNOS (type 2) of 3460 nM.

Consider `COC(=O)[C@@H](N)CCCNC(=N)N[N+](=O)[O-]` [L-NAME, N^G-nitro-L-arginine methyl ester, reference compound], for which the IC50 is 670 nM against eNOS (type 3) and 13500 nM against iNOS (type 2).
